In patent publication US4436751A, “Nitrobenzyl monates antibacterial compounds” (Beecham Group Limited, priority 1980, dated 1984):
≈ marks a conversion by molar mass, not a printed value. Read-outs that look alike come from different tables or passages of the source.

How the values were obtained:
Assay type in all cases: cell-based
M. hyorhinis ATCC 25021 = test: Anti-mycoplasmal MIC in vitro, Friis broth agarose (Table 1); settings: Mesomycoplasma hyorhinis, ATCC25021, 144 h
M. gallisepticum S6 = test: as above; settings: Mycoplasmoides gallisepticum
E. coli ESS = test: Human bacteria MIC, nutrient agar with chocolated horse blood (Table 3); settings: Escherichia coli
Protocol: (§1) The values were determined by serial dilutions in nutrient agar with 5% chocolated horse blood after incubations for 18 hours at 37° C.

Strep. 641848-C = test: as above
Protocol: as §1

Strep. pneumoniae CN33 = test: as above; settings: Streptococcus pneumoniae; Strep. pneumoniae CN33; nutrient agar 5% chocolated horse blood, 18 hours 37° C.; read-out: MIC
Protocol: as §1

S. typhimurium S18 = test: Veterinary bacteria MIC, Diagnostic Sensitivity Test Agar (Table 2); settings: Salmonella enterica
Protocol: (§2) The values were determined using a two fold serial dilutions in Diagnostic Sensitivity Test Agar with an inoculum of 10^4 organisms and incubation for 18 hours at 37° C.

Past. multocida PA2 = test: as above; settings: Pasteurella multocida
Protocol: as §2

Staph. aureus 152 = test: as above
Protocol: as §2

Strep. dylgalactiae SPD1 = test: as above
Protocol: as §2

Past. haemolytica PA5 = test: as above; settings: Mannheimia haemolytica
Protocol: as §2

Bord. bronchiseptica BO9 = test: as above; settings: Bordetella bronchiseptica; Bord. bronchiseptica BO9; DST Agar, 10^4 organisms, 18 hours 37° C.; read-out: MIC
Protocol: as §2

Strep. agalactiae SPA1 = test: as above; settings: Streptococcus agalactiae; Strep. agalactiae SPA1; DST Agar, 10^4 organisms, 18 hours 37° C.; read-out: MIC
Protocol: as §2

Past. multocida PA1 = test: as above; settings: Pasteurella multocida
Protocol: as §2

E. Coli E1 = test: as above; settings: Escherichia coli
Protocol: as §2

Staph. aureus Oxford = test: as above; settings: Staphylococcus aureus
Protocol: as §2

Bord. bronchiseptica BO8 = test: as above; settings: Bordetella bronchiseptica
Protocol: as §2

Strep. uberis SPO1 = test: as above; settings: Streptococcus uberis; Strep. uberis SPO1; DST Agar, 10^4 organisms, 18 hours 37° C.; read-out: MIC
Protocol: as §2

[1] = tested on: Corynebacterium pyogenes CY1; test: as above; settings: Trueperella pyogenes
Protocol: as §2

[2] = tested on: Strep. suis (group D) SPS11; test: as above; settings: Streptococcus suis
Protocol: as §2

S. dublin S7 = test: as above; settings: Salmonella enterica
Protocol: as §2

M. suipneumoniae LABER = test: Anti-mycoplasmal MIC in vitro, Friis broth agarose (Table 1); settings: Mesomycoplasma hyopneumoniae, 144 h
M. suipneumoniae HR(2) = test: as above; settings: Mesomycoplasma hyopneumoniae, 144 h
[3] = tested on: M. suipneumoniae J2206/183b; test: as above; settings: Mesomycoplasma hyopneumoniae, 144 h
M. suipneumoniae MS 16 = test: as above; settings: Mesomycoplasma hyopneumoniae, MS16, 144 h
M. hyorhinis ATCC 23234 = test: as above; settings: Mesomycoplasma hyorhinis, ATCC23234, 144 h
[4] = tested on: M. suipneumoniae NCTC 10110; test: as above; settings: Mesomycoplasma hyopneumoniae, NCTC10110, 144 h
[5] = tested on: Neisseria catarrhalis 1502; test: Human bacteria MIC, nutrient agar with chocolated horse blood (Table 3)
Protocol: as §1

Strep. 2733-B = test: as above; settings: Strep. 2733-B; nutrient agar 5% chocolated horse blood, 18 hours 37° C.; read-out: MIC
Protocol: as §1

[6] = E. coli ESS, nutrient agar 5% chocolated horse blood, 18 hours 37° C., read-out: MIC
[7] = S. typhimurium S18, DST Agar, 10^4 organisms, 18 hours 37° C., read-out: MIC
[8] = Past. multocida PA2, DST Agar, 10^4 organisms, 18 hours 37° C., read-out: MIC
[9] = Staphylococcus aureus, Staph. aureus 152, DST Agar, 10^4 organisms, 18 hours 37° C., read-out: MIC
[10] = Strep. dylgalactiae SPD1, DST Agar, 10^4 organisms, 18 hours 37° C., read-out: MIC
[11] = Past. multocida PA1, DST Agar, 10^4 organisms, 18 hours 37° C., read-out: MIC
[12] = E. Coli E1, DST Agar, 10^4 organisms, 18 hours 37° C., read-out: MIC
[13] = Staph. aureus Oxford, DST Agar, 10^4 organisms, 18 hours 37° C., read-out: MIC
[14] = S. dublin S7, DST Agar, 10^4 organisms, 18 hours 37° C., read-out: MIC
[15] = M. suipneumoniae HR(2), in vitro, 6 days 37° C., read-out: MIC
[16] = M. suipneumoniae J2206/183b, in vitro, 6 days 37° C., read-out: MIC
[17] = 144 h, M. gallisepticum S6, in vitro, 6 days 37° C., read-out: MIC
[18] = Strep. 641848-C, nutrient agar 5% chocolated horse blood, 18 hours 37° C., read-out: MIC
[19] = Neisseria catarrhalis 1502, nutrient agar 5% chocolated horse blood, 18 hours 37° C., read-out: MIC
[20] = Past. haemolytica PA5, DST Agar, 10^4 organisms, 18 hours 37° C., read-out: MIC
[21] = Strep. suis (group D) SPS11, DST Agar, 10^4 organisms, 18 hours 37° C., read-out: MIC

Row | Structure (SMILES) | MIC (M. hyorhinis ATCC 25021) [µg/mL] | MIC (M. gallisepticum S6; S6, 144 h) [µg/mL] | MIC (E. coli ESS; [6]) [µg/mL] | MIC (Strep. pneumoniae CN33) [µg/mL] | MIC (Past. multocida PA2; [8]) [µg/mL] | MIC (Staph. aureus 152; [9]) [µg/mL] | MIC (Strep. dylgalactiae SPD1; [10]) [µg/mL] | MIC (Bord. bronchiseptica BO9) [µg/mL] | MIC (Strep. agalactiae SPA1) [µg/mL] | MIC (Past. multocida PA1; [11]) [µg/mL] | MIC (Staph. aureus Oxford; [13]) [µg/mL] | MIC (Bord. bronchiseptica BO8; BO8, 18 h) [µg/mL] | MIC (Strep. uberis SPO1) [µg/mL] | MIC ([1]; CY1, 18 h) [µg/mL] | MIC (M. suipneumoniae LABER) [µg/mL] | MIC [3, 16] [µg/mL] | MIC (M. suipneumoniae MS 16) [µg/mL] | MIC (M. hyorhinis ATCC 23234) [µg/mL] | MIC [4] [µg/mL] | MIC (Past. haemolytica PA5; [20]) [µg/mL] | other results
1 | C/C(=C\C(=O)OCc1ccc([N+](=O)[O-])cc1)CC1OCC(CC2OC2C(C)C(C)O)C(O)C1O (stereo not drawn) [Example 1, p-nitrobenzyl monate A] | 0.05 (≈ 0.104 µM) | 0.25 (≈ 0.521 µM) | 0.5 (≈ 1.04 µM) | 0.1 (≈ 0.209 µM) | > 0.019 | 0.156 (≈ 0.325 µM) | 0.07 (≈ 0.146 µM) | 1.25 (≈ 2.61 µM) | 0.317 (≈ 0.661 µM) | 0.156 (≈ 0.325 µM) | 0.156 (≈ 0.325 µM) | 5 (≈ 10.4 µM) | 0.039 (≈ 0.0813 µM) | > 80 | 0.05 (≈ 0.104 µM) | 0.1 (≈ 0.209 µM) | 0.05 (≈ 0.104 µM) | 0.05 (≈ 0.104 µM) | 0.05 (≈ 0.104 µM) | – | MIC (Strep. 641848-C; 18 h): 0.25 µg/mL (≈ 0.521 µM); MIC (S. typhimurium S18; [7]): 40 µg/mL (≈ 83.4 µM); MIC (Past. haemolytica PA5; PA5, 18 h): 1.25 µg/mL (≈ 2.61 µM); MIC (E. Coli E1; [12]): 40 µg/mL (≈ 83.4 µM); MIC ([2]; 18 h): 1.25 µg/mL (≈ 2.61 µM); MIC (S. dublin S7; [14]): 40 µg/mL (≈ 83.4 µM); MIC (M. suipneumoniae HR(2); [15]): 0.1 µg/mL (≈ 0.209 µM)
2 | C/C(=C\C(=O)OCc1cccc([N+](=O)[O-])c1C)CC1OCC(CC2OC2C(C)C(C)O)C(O)C1O (stereo not drawn) [Example 8, 2-methyl-3-nitrobenzyl monate A] | 0.1 (≈ 0.203 µM) | – | – | 0.5 (≈ 1.01 µM) | 1.25 (≈ 2.53 µM) | – | – | 5 (≈ 10.1 µM) | 0.625 (≈ 1.27 µM) | 1.25 (≈ 2.53 µM) | – | 40 (≈ 81 µM) | 0.07 (≈ 0.142 µM) | > 80 | 0.1 (≈ 0.203 µM) | 0.25 (≈ 0.507 µM) | 0.1 (≈ 0.203 µM) | 0.1 (≈ 0.203 µM) | 0.1 (≈ 0.203 µM) | 10 (≈ 20.3 µM) | MIC (M. gallisepticum S6; [17]): 5 µg/mL (≈ 10.1 µM); MIC (E. coli ESS; 18 h): 1 µg/mL (≈ 2.03 µM); MIC (Strep. 641848-C; [18]): 0.5 µg/mL (≈ 1.01 µM); MIC [5, 19]: 0.25 µg/mL (≈ 0.507 µM); MIC (S. typhimurium S18; TYPHIMURIUM, 18 h): > 80 µg/mL; MIC (Staph. aureus 152; Staphylococcus aureus, 152, 18 h): 0.312 µg/mL (≈ 0.632 µM); MIC (Strep. dylgalactiae SPD1; 18 h): 0.312 µg/mL (≈ 0.632 µM); MIC (E. Coli E1; 18 h): > 80 µg/mL; MIC (Staph. aureus Oxford; 18 h): 0.312 µg/mL (≈ 0.632 µM); MIC [2, 21]: 5 µg/mL (≈ 10.1 µM); MIC (S. dublin S7; S7, 18 h): > 80 µg/mL; MIC (M. suipneumoniae HR(2)): 0.1 µg/mL (≈ 0.203 µM)
3 | C/C(=C\C(=O)OCc1ccc([N+](=O)[O-])cc1Cl)CC1OCC(CC2OC2C(C)C(C)O)C(O)C1O (stereo not drawn) [Example 11, 2-chloro-4-nitrobenzyl monate A] | 0.5 (≈ 0.973 µM) | 2.5 (≈ 4.86 µM) | – | – | – | 0.07 (≈ 0.136 µM) | 0.156 (≈ 0.304 µM) | 2.5 (≈ 4.86 µM) | 0.156 (≈ 0.304 µM) | – | 0.07 (≈ 0.136 µM) | 10 (≈ 19.5 µM) | ≤ 0.019 | > 80 | 1 (≈ 1.95 µM) | – | 1 (≈ 1.95 µM) | 0.5 (≈ 0.973 µM) | 1 (≈ 1.95 µM) | 2.5 (≈ 4.86 µM) | MIC (Strep. 641848-C; [18]): 1 µg/mL (≈ 1.95 µM); MIC ([5]; Neisseria, 1502, 18 h): 0.5 µg/mL (≈ 0.973 µM); MIC (Strep. 2733-B): 1 µg/mL (≈ 1.95 µM); MIC (S. typhimurium S18; TYPHIMURIUM, 18 h): 80 µg/mL (≈ 156 µM); MIC (Past. multocida PA2; PA2, 18 h): 0.156 µg/mL (≈ 0.304 µM); MIC (Past. multocida PA1; PA1, 18 h): 0.625 µg/mL (≈ 1.22 µM); MIC (E. Coli E1; 18 h): 80 µg/mL (≈ 156 µM); MIC ([2]; 18 h): 0.625 µg/mL (≈ 1.22 µM); MIC (S. dublin S7; S7, 18 h): 80 µg/mL (≈ 156 µM); MIC (M. suipneumoniae HR(2)): 2.5 µg/mL (≈ 4.86 µM); MIC ([3]; J2206/183B): 1 µg/mL (≈ 1.95 µM)
4 | C/C(=C\C(=O)OCc1cccc([N+](=O)[O-])c1)CC1OCC(CC2OC2C(C)C(C)O)C(O)C1O (stereo not drawn) [Example 2, m-nitrobenzyl monate A] | – | – | 5 (≈ 10.4 µM) | – | 0.312 (≈ 0.651 µM) | 0.625 (≈ 1.3 µM) | 0.312 (≈ 0.651 µM) | 5 (≈ 10.4 µM) | 0.625 (≈ 1.3 µM) | 0.615 (≈ 1.28 µM) | 0.625 (≈ 1.3 µM) | – | 0.07 (≈ 0.146 µM) | – | – | 0.025 (≈ 0.0521 µM) | – | – | 0.025 (≈ 0.0521 µM) | 5 (≈ 10.4 µM) | MIC (M. hyorhinis ATCC 25021; M. hyorhinis ATCC 25021, in vitro, 6 days 37° C., read-out: MIC): ≤ 0.01 µg/mL; MIC (M. gallisepticum S6; [17]): 2.5 µg/mL (≈ 5.21 µM); MIC [5, 19]: 2.5 µg/mL (≈ 5.21 µM); MIC (Strep. 2733-B): 10 µg/mL (≈ 20.9 µM); MIC (S. typhimurium S18; [7]): 40 µg/mL (≈ 83.4 µM); MIC (E. Coli E1; [12]): 40 µg/mL (≈ 83.4 µM); MIC (Bord. bronchiseptica BO8; Bord. bronchiseptica BO8, DST Agar, 10^4 organisms, 18 hours 37° C., read-out: MIC): 20 µg/mL (≈ 41.7 µM); MIC ([1]; Corynebacterium pyogenes CY1, DST Agar, 10^4 organisms, 18 hours 37° C., read-out: MIC): > 80 µg/mL; MIC [2, 21]: 5 µg/mL (≈ 10.4 µM); MIC (S. dublin S7; [14]): 80 µg/mL (≈ 167 µM); MIC (M. suipneumoniae LABER; M. suipneumoniae LABER, in vitro, 6 days 37° C., read-out: MIC): 0.025 µg/mL (≈ 0.0521 µM); MIC (M. suipneumoniae HR(2); [15]): 0.025 µg/mL (≈ 0.0521 µM); MIC (M. suipneumoniae MS 16; M. suipneumoniae MS 16, in vitro, 6 days 37° C., read-out: MIC): ≤ 0.01 µg/mL; MIC (M. hyorhinis ATCC 23234; M. hyorhinis ATCC 23234, in vitro, 6 days 37° C., read-out: MIC): ≤ 0.01 µg/mL
